Tested on: progenerating CD34+ stock cells obtained from human bone marrow
Experiment: Cytolysis of CD34+ progenerating stock cells after chemotherapy treatment (SYTOX green)
Assay type: cell-based
Conditions: propolis 0 μg/ml (Control)
Experimental: The objective of the test is to evaluate the effect of the propolis on the cytolysis of progenerating CD34+ stock cells obtained from human bone marrow following the application of chemotherapy treatment (epirubicin and taxotere).
The culture medium that is used is as follows: IMDM, 15 SVF, SCF (50 ng/ml), TPO (50 ng/ml), FK (50 ng/ml).
The test protocol is described below.
On D3: thawing and seeding with 50,000 cells/ml in a flask ([…])
On D0: marking and seeding with 6,000 cells/well in a 96-well plate
Between D0 and D4: • Treatment of cells with a propolis extract (Example 1) between D0 and D3 with the following doses: 0, 0.5, 1, 4, 10 and 20 μg/ml • Treatment of cells with chemotherapy agents (epirubicin at […] and taxotere […]) between D1 and D3
On D5: Marking with 5 nM of SYTOX green, and measurement of cytolysis.
The obtained results that are presented in the table below provide the percentage of CD34+ progenerating stock cells that is cytolyzed on D5.

| Compound | percentage of CD34+ progenerating stock cells that is cytolyzed on D5 (Epirubicin 4.74.10^6 M D1-D3 alone) | percentage of CD34+ progenerating stock cells that is cytolyzed on D5 (Taxotere 2.80.10^6 M D1-D3 alone) |
| --- | --- | --- |
| COc1cccc2c1C(=O)c1c(O)c3c(c(O)c1C2=O)C[C@@](O)(C(=O)CO)C[C@@H]3O[C@H]1C[C@H](N)[C@@H](O)[C@H](C)O1 [Epirubicin] | 53.93% | – |
| CC(=O)O[C@@]12CO[C@@H]1C[C@H](O)[C@@]1(C)C(=O)[C@H](O)C3=C(C)[C@@H](OC(=O)[C@H](O)[C@@H](NC(=O)OC(C)(C)C)c4ccccc4)C[C@@](O)([C@@H](OC(=O)c4ccccc4)[C@H]21)C3(C)C [Taxotere] | – | 65.47% |

Reference: US10463700B2, “Use of propolis for combating the side effects of chemotherapy” (POLLENERGIE, priority 2013, dated 2019)
